Data taken from patent US11420967B2 (priority 2018, dated 2022).
Like-named read-outs stand apart in the source and are kept apart here.

Legend:
T98G cells = test: Antitumor activity in T98G cells in culture (WST-1 cell viability); format: cell-based, human; conditions: for Emax: read-out: maximal efficacy at killing T98G cells; for increase in EC50 value relative to compound 8: compared with 8 (87 nM)
Description: Unless otherwise noted, maximal efficacies were measured at 10 μM. Data are the mean of at least three independent experiments performed in triplicate.
Cell culture. Cells were cultured in DMEM supplemented with 10% FBS, 100 U/mL penicillin, and 100 μg/mL streptomycin at 37° C. in a 5% CO2 humidified atmosphere. T98G and HepG2 cells (ATCC, Manassas, Va.) were authenticated by ATCC when purchased using human short tandem repeat analysis and maintained in culture for less than 6 months. Tumors were obtained from surgeries performed at the Swedish Medical Center (Seattle, Wash.) according to Institutional Review Board guidelines. Patient samples used in this study were diagnosed as WHO grade IV glioblastoma multiforme. Patient-derived GBM cells were established from the freshly resected tumor tissues and maintained in NeuroCult® NSA medium (Stem Cell Technologies) with B-27 serum-free supplement, 20 ng/mL epidermal growth factor and 20 ng/mL fibroblast growth factor 2 as previously described.
Cell viability. […] Maximal % killing was calculated as the % reduction in cell viability measured at all drug concentration. EC50 values were calculated and reported only when a curve was reliably extrapolated by Prism software. The solvent for all modified carbazoles was DMSO (0.1% final).

tubulin = target: T1, tubulin (Sus scrofa, UniProt P02550+P02554); test: Tubulin polymerization with fluorescent tubulin (Cytoskeleton Inc.); format: biochemical
T1 construct: purchased Cytoskeleton Inc
Description: Real-time tubulin polymerization was measured by quantifying increase in fluorescent tubulin assembly in microtubule (RFU) as a function of time (minutes).
Dose-response curves that generated results in Table 5. Tubulin assembly was measured using fluoresent-rescent tubulin in 100 μl according to manufacturer's protocol (Cytoskeleton Inc.).

[1] = target: T2, cannabinoid CB1 receptor (hCB1) (Homo sapiens, UniProt P21554); test: β-arrestin recruitment in hCB1-transfected HEK293 cells; format: cell-based; conditions: β-arrestin recruitment
T2 construct: expressed in transfected cells; host or cells: HEK293

[2] = target: T3, cannabinoid CB2 receptor (hCB2) (Homo sapiens, UniProt P34972); test: β-arrestin recruitment in hCB2-transfected HEK293 cells; format: cell-based
T3 construct: expressed in transfected cells; host or cells: HEK293

[3] = tested on: NCI-60 cancer cell line panel; test: NCI-60 cancer cell line panel screen (percent growth inhibition); format: cell-based, human
From the text: FIG. 4 illustrates analysis of cell-killing activity of select compounds of the disclosure in NCI-60 cancer cell line panel. 8, 20, 27 and 23 (left panel) and taxol, thalipcarpine, and maytansine activity (right panel) in the NCI-60 cell lines.
This screening platform measures the antitumor activities of compounds expressed as percent growth inhibition, which differentiates the compound's activity at inhibiting cell proliferation and reducing cell number (i.e. killing cells). […] Two GBM cells lines included in the NCI-60 panel, SF-295 and SF-539, were among the top ten cell lines that were the most sensitive to 8, 20 and 27 treatments (FIG. 6). Their respective EC50 values of the compounds measured in these cells mirrored their EC50 values measured in T98G cells. Additional cell lines among the top ten cell lines that were sensitive to these three compounds were three cell lines of colon cancer origin: Colo205, HT-29 and HCC-2998 (FIG. 5).

[4] = target: T4, colchicine site of tubulin (purified tubulin) (Bos taurus, UniProt P81947+Q6B856); test: [3H]colchicine binding to purified tubulin; set-up: species or system bovine; conditions: read-out: Colchicine Binding % inhibition (mean ± SD) at 5 μM
T4 construct: from tissue; host or cells: native tubulin
Description: (§1) Results are mean±SEM from n=4-5 independent experiments performed in triplicates. […] Results are from 3 independent experiments performed in duplicate.
First, it was determined whether compounds of the disclosure compete for [^3H]colchicine binding to native purified tubulin as previously described.
[^3H]Colchicine binding to purified tubulin and tubulin assembly. [^3H]Colchicine binding to purified tubulin and tubulin assembly (as assessed by turbidity development in purified bovine tubulin solutions) were both measured as previously described.

[5] = target: T5, sheared MTs / bovine brain tubulin (Bos taurus, UniProt P81947+Q6B856); test: MT-tubulin partitioning (free tubulin pelleting assay, gel quantification); format: biochemical
T5 construct: Bovine brain tubulin was purified, polymerized into MTs and sheared; from tissue; host or cells: bovine brain
Description: as §1
Next tested was their ability to inhibit the assembly of purified tubulin using an in vitro turbidity assay as previously described. […] In this assay, compounds are incubated with sheared MTs at 37° C. and the resulting amounts of tubulin dimers (free tubulin) and polymer (MT) after 15 min is measured on polyacrylamide gels.
MT-tubulin partitioning. Bovine brain tubulin was purified, polymerized into MTs and sheared as previously described. Sheared MTs and drugs were incubated at 37° C. for 15 min and centrifuged for 10 min at 42,000 rpm at 37° C. prior to separation into supernatants containing free tubulin and pellets containing polymerized MTs as previously described. […] Peak intensities were quantified using ImageJ.

[6] = Homo sapiens, T98G cells, WST-1, 72 hours after treatment, read-out: EC50
[7] = Homo sapiens, T98G cells, rounded values of the discussion
[8] = Homo sapiens, T98G, T98G cells, rounded values of the discussion

T2 sequence (P21554 whole entry): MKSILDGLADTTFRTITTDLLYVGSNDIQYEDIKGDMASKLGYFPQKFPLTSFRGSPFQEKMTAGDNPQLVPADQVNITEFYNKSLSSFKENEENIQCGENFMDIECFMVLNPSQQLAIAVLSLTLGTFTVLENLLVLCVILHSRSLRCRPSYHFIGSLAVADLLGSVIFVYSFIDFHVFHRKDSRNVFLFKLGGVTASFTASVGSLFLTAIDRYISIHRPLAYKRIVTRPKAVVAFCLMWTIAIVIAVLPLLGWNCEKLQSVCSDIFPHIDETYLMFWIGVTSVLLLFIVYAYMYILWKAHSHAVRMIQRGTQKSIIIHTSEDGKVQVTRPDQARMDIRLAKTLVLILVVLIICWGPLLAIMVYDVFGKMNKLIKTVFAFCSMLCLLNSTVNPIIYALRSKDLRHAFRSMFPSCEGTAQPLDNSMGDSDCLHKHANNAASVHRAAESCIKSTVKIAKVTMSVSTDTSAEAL
T3 sequence (P34972 whole entry): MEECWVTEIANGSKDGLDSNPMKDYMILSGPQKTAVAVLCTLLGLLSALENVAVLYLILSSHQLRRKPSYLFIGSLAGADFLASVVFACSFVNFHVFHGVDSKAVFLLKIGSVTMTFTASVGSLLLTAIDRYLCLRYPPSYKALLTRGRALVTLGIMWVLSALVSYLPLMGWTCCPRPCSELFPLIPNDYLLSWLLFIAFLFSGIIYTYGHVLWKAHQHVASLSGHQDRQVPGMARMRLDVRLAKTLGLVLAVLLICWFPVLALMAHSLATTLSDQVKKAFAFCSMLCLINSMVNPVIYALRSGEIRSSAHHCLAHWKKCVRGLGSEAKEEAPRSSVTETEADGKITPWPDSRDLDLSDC
T5 sequence (Q6B856 whole entry): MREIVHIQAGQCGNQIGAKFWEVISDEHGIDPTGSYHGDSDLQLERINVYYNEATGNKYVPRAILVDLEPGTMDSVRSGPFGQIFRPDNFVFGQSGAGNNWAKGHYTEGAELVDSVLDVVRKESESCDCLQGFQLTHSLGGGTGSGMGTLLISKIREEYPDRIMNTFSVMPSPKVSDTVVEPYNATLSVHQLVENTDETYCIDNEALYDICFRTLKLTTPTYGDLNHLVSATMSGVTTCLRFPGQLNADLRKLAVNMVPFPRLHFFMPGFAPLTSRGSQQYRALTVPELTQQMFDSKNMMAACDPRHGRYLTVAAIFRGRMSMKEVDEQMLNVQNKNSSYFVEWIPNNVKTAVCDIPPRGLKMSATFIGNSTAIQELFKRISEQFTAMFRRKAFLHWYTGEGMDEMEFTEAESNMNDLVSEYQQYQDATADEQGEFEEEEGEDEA
T5 sequence (P81947 whole entry): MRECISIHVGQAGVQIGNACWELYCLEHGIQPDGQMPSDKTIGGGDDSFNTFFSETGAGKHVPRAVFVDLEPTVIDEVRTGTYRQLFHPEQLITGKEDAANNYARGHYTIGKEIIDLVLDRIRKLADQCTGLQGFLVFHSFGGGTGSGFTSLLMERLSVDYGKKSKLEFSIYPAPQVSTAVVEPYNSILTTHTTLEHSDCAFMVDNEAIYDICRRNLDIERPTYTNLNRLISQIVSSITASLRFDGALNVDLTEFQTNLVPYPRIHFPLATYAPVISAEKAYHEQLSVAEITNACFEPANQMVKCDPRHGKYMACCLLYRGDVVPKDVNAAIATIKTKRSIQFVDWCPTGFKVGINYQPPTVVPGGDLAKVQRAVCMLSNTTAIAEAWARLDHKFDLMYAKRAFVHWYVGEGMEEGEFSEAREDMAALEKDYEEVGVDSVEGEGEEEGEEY
T1 sequence (P02554 whole entry): as the sequence (Q6B856 whole entry) above, with T55A, M170V, S296A, I316V, E440G, G441E counted along it
T1 sequence (P02550 whole entry): as the sequence (P81947 whole entry) above, with L136S, S232G, I265A, S340T, Q358E counted along it
T4 sequence (Q6B856 whole entry): as the sequence (Q6B856 whole entry) above
T4 sequence (P81947 whole entry): as the sequence (P81947 whole entry) above

Structure (SMILES) | EC50 (T98G cells; [6]) [nM] | Emax (T98G cells; [7]) [%] | maximal killing (% ± SEM) (T98G cells; T98G cells, at 10 μM, 72 hours) [%] | antitumor activity in T98G cells (in words) (T98G cells; T98G cells) | effect on T98G cell viability (in words) (T98G cells; T98G cells) | increase in EC50 value relative to compound 8 (T98G cells; T98G cells) | also measured
CCn1c2ccccc2c2cc(C(=O)c3cccc4cccnc34)ccc21 [Compound 22, 9-ethyl-3-(quinoline-8-carbonyl)-9H-carbazole] | 8800 | 60 | 60.0 | – | – | – | reduction of maximal antitumor efficacy relative to compound 25 (T98G cells): 96%
CCn1c2ccccc2c2cc(C(=O)N3CCN(C)CC3)ccc21 [Compound 9, 9-ethyl-3-(4-methylpiperazine-1-carbonyl)-9H-carbazole] | > 10000 | – | 13.2 | only active at concentrations above five micromolar | did not affect T98G cell viability significantly | – | –
CCn1c2ccccc2c2cc(C(O)c3cccc4ncccc34)ccc21 (single isomer, unassigned; (+)) [(+)-19, (+)-(9-ethyl-9H-carbazol-3-yl)(quinolin-5-yl)methanol] | – | – | – | – | – | – | IC50 (tubulin; fluorescent tubulin, 100 μl): 0.64 µM
Cc1ccc(C(=O)n2c3ccccc3c3ccccc32)c2ccccc12 [Compound 28, 9-(4-methylnaphthalene-1-carbonyl)-9H-carbazole] | 957 | 89 | 89.1 | – | – | – | –
CCCn1c2ccccc2c2cc(C(=O)c3ccc(C)c4ccccc34)ccc21 [Compound 16, 9-propyl-3-[(4-methylnaphthalen-1-yl)carbonyl]-9H-carbazole] | > 10000 | – | 16.3 | only active at concentrations above five micromolar | did not affect T98G cell viability significantly | 115 fold | –
Cc1ccc(C(=O)c2ccc3c(c2)c2ccccc2n3CC(F)(F)F)c2ccccc12 [Compound 18, 3-(4-methylnaphthalene-1-carbonyl)-9-(2,2,2-trifluoroethyl)-9H-carbazole] | 5600 | – | 35.6 | only active at concentrations above five micromolar | – | 64 fold | Emax (T98G cells; [8]): 35 to 45%; maximal efficacy at killing T98G cells (T98G cells; T98G cells, rounded values of the discussion): 35%
CCn1c2ccccc2c2cc(C(=O)c3ccc(Cl)cc3)ccc21 [Compound 10, 3-(4-chlorobenzoyl)-9-ethyl-9H-carbazole] | 1500 | 61 | 71.1 | – | – | – | –
CCCCCCC(C)(C)c1ccc([C@@H]2C[C@H](O)CC[C@H]2CCCO)c(O)c1 [positive control, CP55940, reference compound] | – | – | – | – | – | – | Agonist efficacy (% activation) CB1 [1]: 1940 % activation; Antagonist efficacy (% activation) CB1 [1]: 97 % activation; Antagonist efficacy (% activation) CB2 ([2]; β-arrestin recruitment): 92 % activation
CC(=O)O[C@H]1C(=O)[C@@]2(C)[C@H]([C@H](OC(=O)c3ccccc3)[C@]3(O)C[C@H](OC(=O)[C@H](O)[C@@H](NC(=O)c4ccccc4)c4ccccc4)C(C)=C1C3(C)C)[C@]1(OC(C)=O)CO[C@@H]1C[C@@H]2O [paclitaxel, reference compound] | – | – | – | – | – | – | maximal killing (T98G cells): 63.2%±2.5; EC50 (T98G cells; Homo sapiens, T98G, 72 h): 148000 nM; effect on MT in real-time tubulin polymerization (in words) (tubulin; Paclitaxel 10 μM, 19 1 μM): stabilizes MT
CCn1c2ccccc2c2cc(C(=O)c3ccc(C)cc3)ccc21 [Compound 12, 9-ethyl-3-(4-methylbenzoyl)-9H-carbazole] | 993 | 84 | – | – | – | 11 fold | maximal killing (% ± SEM) (T98G cells; T98G cells, at 3 μM, 72 hours): 83.6%
CCn1c2ccccc2c2cc(C(=O)c3ccc(F)cc3)ccc21 [Compound 11, 9-ethyl-3-(4-fluorobenzoyl)-9H-carbazole] | 8000 | 55 | 54.8 | – | – | – | –
COc1ccc(/C=C\c2cc(OC)c(OC)c(OC)c2)cc1O [combretastatin A-4, reference compound] | – | – | – | – | – | – | EC50 (T98G cells; T98G cells, WST-1, 72 hours after treatment, read-out: EC50): 0.6 nM; maximal killing (T98G cells; T98G cells, at 10 nM, 72 hours): 30.4%±2.1
CCn1c2ccccc2c2cc(C(=O)Cc3ccccc3)ccc21 [Compound 13, 1-(9-ethyl-9H-carbazol-3-yl)-2-phenylethan-1-one] | > 10000 | – | – | only active at concentrations above five micromolar | did not affect T98G cell viability significantly | more than 115 fold | maximal killing (% ± SEM) (T98G cells; T98G cells, at 3 μM, 72 hours): 14.0%
CCn1c2ccccc2c2cc(C(=O)c3cccc4ccccc34)ccc21 [Compound 14, 9-ethyl-3-(naphthalene-1-carbonyl)-9H-carbazole] | 1700 | – | 72.0 | – | – | 20 fold | Emax (T98G cells; [8]): 72%
CCn1c2ccccc2c2cc(C(=O)c3cccc4c3CCCN4)ccc21 [Compound 23, (9-ethyl-9H-carbazol-3-yl)(1,2,3,4-tetrahydroquinolin-5-yl)methanone] | > 10000 | – | – | only active at concentrations above five micromolar | did not affect T98G cell viability significantly | – | maximal killing (% ± SEM) (T98G cells; T98G cells, at 3 μM, 72 hours): −17.0%; viability at 10 µM ([3]; Homo sapiens, 48 h, read-out: growth inhibition: mean): 102%; effect on proliferation and viability of NCI-60 cell lines (in words) ([3]; NCI-60, 10 μM, 48 hours): did not significantly affect the proliferation and viability of any of the cell lines; inhibition at 5 µM [4]: 4 ± 1%; IC50 ([5]; MT-Tubulin Partitioning IC50 (μM) (mean), sheared MTs at 37° C., 15 min): > 20 µM; effect on MT assembly/disassembly, MT-free tubulin partitioning (in words) ([5]; free tubulin pelleting assay): does not affect MT assembly; Agonist efficacy (% activation) CB1 [1]: −2 % activation; Antagonist efficacy (% activation) CB1 [1]: 16 % activation; EC50 ([1]; antagonist mode, read-out: Antagonist CB1, value in parentheses (EC50)): 183 nM; EC50 [2]: 67 nM; Agonist efficacy (% activation) CB2 ([2]; β-arrestin recruitment): 2 % activation; Antagonist efficacy (% activation) CB2 ([2]; β-arrestin recruitment): 20 % activation
CCn1c2ccccc2c2cc(C(=O)c3cccc4c3NCCC4)ccc21 [Compound 24, 9-ethyl-3-(1,2,3,4-tetrahydroquinoline-8-carbonyl)-9H-carbazole] | > 10000 | – | – | only active at concentrations above five micromolar | did not affect T98G cell viability significantly | – | maximal killing (% ± SEM) (T98G cells; T98G cells, at 100 nM, 72 hours): −18.0%
